Assay [1] deals with poly(ADP-ribose) polymerase (PARP). The experiment in a line: Cell apoptosis: PARP cleavage by Western Blot in AML cells. As to conditions: 1 μM, 24 hours; MOLM-13, MOLM-14, MV-4-11. The format is cell-based, human. From the text: In human acute myeloid leukemia cells MV4-11 (expressing FLT3/ITD mutant gene) cell strain and human acute myeloid leukemia cells MOLM-13 and MOLM-14 (expressing FLT3/ITD mutant gene and wild-type FLT3 gene) cell strains, the effects of Compound 5 and Compound 135 on protein cleavage of the DNA repairase poly(ADP-ribose) polymerase (PARP) and Caspase (cysteinyl aspartate-specific proteinase) 3 that were closely related to cell apoptosis were examined in cells in order to confirm whether the death of the cells after the administration was caused by apoptosis or necrosis. MOLM-13, MOLM-14, MV-4-11 cell strains were treated with Compound 5, Compound 135 (at different concentrations: 0 μM, 0.1 μM, 0.3 μM, 1 μM, 3 μM in DMSO) and the control compound PKC412 (purchased from MedChem Express) (1 μM in DMSO), respectively, and the cells were collected after 24 hours. Western Blot was used to detect the effects of different concentrations of compounds on protein cleavage of the DNA repairase poly(ADP-ribose) polymerase (PARP) and Caspase (cysteinyl aspartate-specific proteinase) 3.

A further assay relates to P210/T315I-BaF3. The experiment in a line: Proliferation of P210/T315I-BaF3 cells, CCK8 cell viability assay. The format is cell-based. As to conditions: Mus musculus, 72 hours, stably expressing BCR-ABL/T315I. The gist of the method: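 Human kinase-region sequences were PCR-amplified, fused behind N-terminal TEL in MSCV-Puro and stably introduced into mouse BaF3 by retrovirus. IL-3 was then removed to give kinase-dependent lines. Compound effects on these and on parental BaF3 are scored as GI50 (μM) via CCK8 viable-cell quantification.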

For `CC(=O)Nc1cc(Oc2ccc(NC(=O)Cc3ccc(F)cc3F)cc2)ncn1` [Example 5, N-[4-(6-acetylamino-pyrimidin-4-yloxy)-phenyl]-2-(2,4-difluoro-phenyl)-acetamide], in assay [1], the “cleavage of the DNA repairase poly(ADP-ribose) polymerase (PARP)” value is “significant cleavage”. Broadly, the GI50 is the concentration that inhibits growth by half. High values mean less potent growth inhibition, low ones more potent growth inhibition. For the molecule `CC(=O)Nc1cc(Oc2ccc(NC(=O)Cc3ccccc3C(F)(F)F)cc2)ncn1` [Example 135, N-[4-(6-acetylamino-pyrimidin-4-yloxy)-phenyl]-2-(2-trifluoromethyl-phenyl)-acetamide], the 50% growth inhibitory concentration (GI50) in the assay on P210/T315I-BaF3 was more than 10 µM. In assay [1], the “cleavage of the DNA repairase poly(ADP-ribose) polymerase (PARP)” value was “significant cleavage”.

The values above are taken from US11602534B2, “Pyrimidine derivative kinase inhibitors” (HEFEI INSTITUTES OF PHYSICAL SCIENCE, CHINESE ACADEMY OF …, priority 2017, dated 2023).
